Experimental data from PubChem BioAssay AID1259407 (Chemical Carcinogenesis Research Information System (CCRIS), 2018).
The source made the active and inactive calls. No rule for the calls is given here.

Test system: CCRIS mutagenicity, Ames/micronucleus/aberration tests
Assay: CCRIS mutagenicity studies
Conditions: Test System: AMES SALMONELLA TYPHIMURIUM

Measured: mutagenic call

CCCCOCC1CO1 (configuration not stated)
active: Strain/Indicator: TA100, Metabolic Activation: HAMSTER, LIVER, S-9, AROCLOR 1254 (10%), Method: PREINCUBATION active; positive | Strain/Indicator: TA100, Metabolic Activation: NONE, Method: PREINCUBATION active; positive | Strain/Indicator: TA100, Metabolic Activation: NONE, Method: SPOT active; positive | Strain/Indicator: TA100, Metabolic Activation: RAT, LIVER, S-9, AROCLOR 1254 (10%), Method: PREINCUBATION active; positive | Strain/Indicator: TA1535, Metabolic Activation: HAMSTER, LIVER, S-9, AROCLOR 1254 (10%), Method: PREINCUBATION active; positive | Strain/Indicator: TA1535, Metabolic Activation: NONE, Method: PREINCUBATION active; positive | Strain/Indicator: TA1535, Metabolic Activation: RAT, LIVER, S-9, AROCLOR 1254 (10%), Method: PREINCUBATION active; positive
